Legend:
Assay type in all cases: cell-based, mouse
caspase-1 = experiment: Caspase-1 activation in LPS-primed, ATP-treated BMDM (immunoblot); conditions: ATP-treated BMDM pretreated with RSM932A
Experimental: Macrophage culture and stimulation—Femurs and tibias from C57BL/6 mice, Ampkα1^−/− mice, and Il10rb^−/− mice at 6-10 weeks of age were used to generate bone-marrow-derived macrophages (BMDM) as described (Hornung et al., 2008). Macrophages were cultured in DMEM supplemented with 10% FBS, 20% L929-cell conditioned medium, and 100 U/ml penicillin-streptomycin for 7-10 days. Bone marrow was isolated from MWS Nlrp3^A350VneoRCreT, FCAS Nlrp3^L351PneoCreT and NOMID Nlrp3^D301NneoCreT conditional knock-in mice (Bonar et al., 2012; Brydges et al., 2009), and were allowed to differentiate over 7 days with addition of fresh mouse recombinant GMCSF every three days. (Z)-4-hydroxitamoxifen at 0.4 μg/ml was added to cells 24 hr prior to treatment to induce the mutant Nlrp3 allele. Immortalized mouse BMDM were grown in DMEM supplemented with 10% FBS and 100 U/ml penicillin-streptomycin. All cells were grown at 37° C. with 5% CO2. […]
(§1) Protein Immunoblotting and ELISA—Mitochondria were isolated using Mitochondria Isolation kit. Whole cell lysates were prepared in NP40 buffer containing a protease inhibitor cocktail and a phosphatase inhibitor cocktail, and supernatants were analyzed by SDS-PAGE. […]

BMDM [1] = experiment: Mitochondrial reactive oxygen species (MitoSOX); conditions: BMDM pretreated with RSM932A, LPS+DOTAP or LPS+nigericin
Experimental: (§2) Mitochondrial Function—Mitochondrial membrane potential (Ψm) was measured using TMRM (#T668, Life Technologies) according to manufacturer's instructions. Briefly, RSM932A-pretreated BMDM and shCtrl and shChoKα iBMDM were primed with LPS for 4 hr. Cells were stained with 200 nM TMRM for 30 min at 37° C., and then treated with CCCP (5 μM) for 5 min. After washing twice, fluorescence intensity was determined per manufacturer's instructions using a FilterMax F5 multimode plate reader (Molecular Devices), Mitochondrial reactive oxygen species (mtROS) was measured using MitoSOX (Invitrogen) as described (Zhong et al., 2016c). […] After washing with PBS, fluorescence intensity was determined at 510/580 nm using a FilterMax F5 plate reader. NAD^+/NADH ratio was measured using NAD^+/NADH Cell-Based Assay kit according to manufacturer's instructions (Cayman Chemical Company). […] Absorbance was measured at 450 nm using FilterMax F5 plate reader. Complex V ATP synthase activity was measured in mitochondria isolated from BMDM treated with LPS for 24 hr using Complex V Activity Assay kit (Cayman Chemical Company) according to manufacturer's instructions. Absorbance was measured at 340 nm at 30-second intervals for 30 min using a FilterMax F5 plate reader. Cellular ATP was measured after 24 hr LPS stimulation using CellTiter-Glo Luminescent Assay (Promega) as described (Ip et al., 2017). […]

BMDM [2] = experiment: Cytosolic mtDNA (QPCR); conditions: RSM932A-pretreated BMDM, LPS-primed, ATP or nigericin
Experimental: Cellular fractionation and measurement of cytosolic mtDNA—BMDM were primed with LPS and stimulated with an NLRP3 inflammasome activator. Cellular fractionation was performed using Mitochondrial Isolation kit (ThermoScientific) according to manufacturer's instructions. Cytosolic mtDNA was analyzed as described (Nakahira et al., 2011). Briefly, DNA was isolated from 300 μl of the cytosolic fractions using All Prep DNA/RNA kit, and mitochondrial DNA encoding cytochrome c oxidase 1 and D-Loop were measured by QPCR with an equal volume of the DNA solution. Nuclear DNA encoding 18S ribosomal RNA and Tert was used for normalization. Primer sequences were obtained from the NIH qPrimerDepot (mouseprimerdepot.nci.nih.gov) and provided by Integrated DNA Technologies, as set forth below.

NLRP3 inflammasome = experiment: IL-1β release by LPS-primed macrophages stimulated with NLRP3 activators (ELISA); conditions: LPS-primed
Experimental: Macrophage culture and stimulation—Femurs and tibias from C57BL/6 mice, Ampkα1^−/− mice, and Il10rb^−/− mice at 6-10 weeks of age were used to generate bone-marrow-derived macrophages (BMDM) as described (Hornung et al., 2008). Macrophages were cultured in DMEM supplemented with 10% FBS, 20% L929-cell conditioned medium, and 100 U/ml penicillin-streptomycin for 7-10 days. Bone marrow was isolated from MWS Nlrp3^A350VneoRCreT, FCAS Nlrp3^L351PneoCreT and NOMID Nlrp3^D301NneoCreT conditional knock-in mice (Bonar et al., 2012; Brydges et al., 2009), and were allowed to differentiate over 7 days with addition of fresh mouse recombinant GMCSF every three days. (Z)-4-hydroxitamoxifen at 0.4 μg/ml was added to cells 24 hr prior to treatment to induce the mutant Nlrp3 allele. Immortalized mouse BMDM were grown in DMEM supplemented with 10% FBS and 100 U/ml penicillin-streptomycin. All cells were grown at 37° C. with 5% CO2. NLRP3 inflammasome activation was induced priming for 4 hr with ultrapure LPS (100 ng/ml) followed by treatment with the NLRP3 activators ATP (4 mM) and nigericin (10 μM) for 45 min, unless otherwise indicated, and monosodium urate (MSU) crystals (400 μg/ml) and 1,2-dioleoyl-3-trimethylammoniumpropane (DOTAP) liposomes (50 μg/ml) for 3 hr. In Nlrp3 mutant macrophages IL-1b production was induced by LPS treatment for 16 hr at 37° C., whereas FCAS macrophages were incubated at 32° C. without LPS addition. AIM2 inflammasome activation was induced by 4 hr LPS priming and transfection with lipofectamine 3000 and the AIM2 activator poly(dA:dT) (1 μg/ml) for 8 hr. For choline deprivation experiments, the cells were cultured in CMRL1066 medium with or without choline for 2-3 hr before priming with LPS and kept during the experiment.
as §1

BMDM [3] = experiment: Mitochondrial membrane potential (TMRM); conditions: RSM932A-pretreated, LPS-primed; at least as effectively as CCCP
Experimental: as §2

[4] = system: NLRP3 inflammasome components; experiment: Immunoblot of NLRP3 inflammasome components in BMDM; conditions: BMDM pretreated with RSM932A
Experimental: Protein Immunoblotting and ELISA—Mitochondria were isolated using Mitochondria Isolation kit. Whole cell lysates were prepared in NP40 buffer containing a protease inhibitor cocktail and a phosphatase inhibitor cocktail, and supernatants were analyzed by SDS-PAGE. Proteins were transferred into PVDF membranes, blocked in 5% BSA and 1×TBST for 1 hr, and incubated with indicated antibodies overnight. Secondary antibodies were added for 1 hr and detection was done using CLARITY™ Western ECL Substrate (Biorad). Paired antibodies (capture and detection) and standard recombinant mouse IL-1β (R&D Systems), and TNF and IL-6 (eBioscience) were used to determine cytokine concentrations according to manufacturer's instructions.

C/[N+](c1ccc(Cl)cc1)=c1\ccn(Cc2ccc(-c3ccc(Cn4cc/c(=[N+](/C)c5ccc(Cl)cc5)c5ccccc54)cc3)cc2)c2ccccc12 [RSM932A]
caspase-1 activation (caspase-1): inhibited
production of mitochondrial reactive oxygen species (mtROS) (BMDM [1]): attenuated
amount of cytosolic mtDNA (BMDM [2]): reduced
IL-1β production (NLRP3 inflammasome; BMDM pretreated overnight with 5 μM RSM932A, ATP or MSU-stimulated, compared with ChoKα knockdown (reduced)): produced a similar effect
reduction of MSU-induced IL-1β release (NLRP3 inflammasome; MSU-stimulated BMDM pretreated overnight with 5 μM RSM932A, p<0.005): 71%
mitochondrial membrane potential (Ψm) (BMDM [3]): reduced
expression of NLRP3 inflammasome components (caspase-1, NLRP3, ASC, pro-IL-1β induced by LPS) [4]: did not alter
